Test results as given in patent publication US5100873A, “Irreversible peptide ligands for bombesin receptors, their use, and process for making the same” (priority 1988, dated 1992).
Structures can show the parent of a compound that is named as a salt. Where two headings read alike, the source gives them in different places. *1 amine or outer side, *2 acyl side, *3 side chain or, on linkers, in order; H or OH if unused. Where a SMILES comes first, the peptide text is derived from it. [ ]: non-standard residue; d: D form. The star is where a group is joined. Phe(4-N(CH2CH2Cl)2) = N[C@@H](Cc1ccc(N(CCCl)CCCl)cc1)C(=O)O; X1 = O=C([C@H](Cc1cccc(N(CCCl)CCCl)c1)N[*:1])[*:2]; Boc = CC(C)(C)OC(=O)*

Assays:
Swiss 3T3 fibroblasts [1] = experiment: [H3]thymidine incorporation (mitogenesis), analogues given alone; format: cell-based, mouse; conditions: for [H3]thymidine incorporation, fold increase over basal value: analogue alone; for Effect on thymidine incorporation (in words): given alone
Procedure: (§1) The effect on mitogenesis was determined in quiescent and confluent Swiss 3T3 cells maintained in serum free medium (A. N. Corps et al (1985) Biochem J. 231, 781-785). In a first set of experiments, analogues were given alone or in combination with bombesin. In a second set of experiments, cells were pre-treated with the alkylating peptides, washed, left at 37° C. for 24 hours and then challenged with bombesin. In both cases, DNA synthesis was evaluated as [H^3 ]thymidine incorporation (Table 2).

[2] = tested on: p115 protein associated with the bombesin receptor complex; experiment: Phosphorylation of the p115 protein associated with the bombesin receptor; format: cell-based
Procedure: Mitogenic effect of bombesin and its analogues were also evaluated as activation of the proteintyrosin kinase that phosphorylates a 115 KD protein (p115) associated with the bombesin receptor complex (D. Cirillo et al. (1986) Mol. Cell. Biol. 6, 4641-4649) (Table 3).

bombesin receptors = target: T1, bombesin receptors (Mus musculus, UniProt P21729); experiment: Binding affinity for bombesin receptors on mouse Swiss 3T3 fibroblasts; conditions: for ID50: mouse Swiss 3T3 fibroblasts
T1 construct: bombesin receptors was determined on mouse Swiss 3T3 fibroblasts; endogenous in cells; host or cells: mouse Swiss 3T3 fibroblasts
Procedure: The binding affinity of the compounds of the present invention for bombesin receptors was determined on mouse Swiss 3T3 fibroblasts (I. Zachary and E. Rozengurt (1985) Proc. Natl. Acad. Sci. USA, 82, 7616-7620) (Table 1).

Swiss 3T3 fibroblasts [3] = experiment: Inhibition of BBS-induced [H3]thymidine incorporation (given with BBS or as pre-treatment); format: cell-based, mouse
Swiss 3T3 fibroblasts [4] = experiment: as above; format: cell-based, mouse; conditions: for % inhibition in the presence of 25 nM BBS (A): A = analogues given in combination with BBS; for % inhibition in the presence of 25 nM BBS (B): B = cells pretreated with analogues, washed, left at 37° C. for 24 h, then challenged with BBS; for Antagonism of BBS (in words): given together / contemporaneously with BBS
Procedure: as §1

T1 sequence (P21729 whole entry): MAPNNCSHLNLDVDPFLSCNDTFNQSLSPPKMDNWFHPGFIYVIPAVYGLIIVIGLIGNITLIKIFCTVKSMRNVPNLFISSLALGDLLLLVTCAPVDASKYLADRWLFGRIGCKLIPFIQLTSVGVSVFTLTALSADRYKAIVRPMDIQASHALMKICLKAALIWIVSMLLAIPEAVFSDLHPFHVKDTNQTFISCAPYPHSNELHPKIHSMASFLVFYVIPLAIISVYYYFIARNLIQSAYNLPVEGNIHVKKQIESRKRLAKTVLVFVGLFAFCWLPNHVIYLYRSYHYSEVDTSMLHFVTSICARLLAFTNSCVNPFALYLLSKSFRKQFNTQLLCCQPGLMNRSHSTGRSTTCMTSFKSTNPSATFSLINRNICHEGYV

## CSCC[C@H](NC(=O)[C@H](CC(C)C)NC(=O)[C@H](Cc1cnc[nH]1)NC(=O)CNC(=O)[C@@H](NC(=O)[C@H](C)NC(=O)[C@H](Cc1c[nH]c2ccccc12)NC(=O)[C@H](CCC(N)=O)NC(=O)[C@H](CC(N)=O)NC(=O)CNC(=O)[C@H](CC(C)C)NC(=O)[C@H](CCCN=C(N)N)NC(=O)[C@H](CCC(N)=O)NC(=O)[C@@H]1CCC(=O)N1)C(C)C)C(N)=O [BBS, Glp-Gln-Arg-Leu-Gly-Asn-Gln-Trp-Ala-Val-Gly-His-Leu-Met-NH2, reference compound]
Swiss 3T3 fibroblasts [1]; 5 nM
  [H3]thymidine incorporation, fold increase over basal value: 3.0 ± 1
[2]
  Minimal active dose, p115 phosphorylation: 3

## CC(C)[C@H](NC(=O)[C@H](C)NC(=O)[C@H](Cc1c[nH]c2ccccc12)NC(=O)[C@H](CCC(N)=O)NC(=O)[C@H](Cc1ccc(N(CCCl)CCCl)cc1)NC(=O)OC(C)(C)C)C(=O)NCC(=O)O [III, Boc-pMel-Gln-Trp-Ala-Val-Gly-OH] (Boc-[Phe(4-N(CH2CH2Cl)2)]QWAVG-OH)
Bombesin receptors
  IC50: 12000 nM

## CC(C)[C@H](NC(=O)[C@H](C)NC(=O)[C@H](Cc1c[nH]c2ccccc12)NC(=O)[C@H](CCC(N)=O)NC(=O)[C@H](Cc1cccc(N(CCCl)CCCl)c1)NC(=O)OC(C)(C)C)C(=O)NCC(=O)O [IX, Boc-mMel-Gln-Trp-Ala-Val-Gly-OH] (Boc-[X1]QWAVG-OH)
Bombesin receptors
  IC50: 8200 nM

## CC(C)C[C@H](NC(=O)[C@H](CC(C)C)NC(=O)[C@@H](Cc1c[nH]c2ccccc12)NC(=O)[C@H](Cc1ccccc1)NC(=O)[C@@H](Cc1c[nH]c2ccccc12)NC(=O)[C@H](CCC(N)=O)NC(=O)[C@H](CCC(N)=O)NC(=O)[C@@H]1CCCN1C(=O)[C@H](CCCCN)NC(=O)[C@@H]1CCCN1C(=O)[C@H](N)CCCNC(=N)N)C(N)=O [Spantide, reference compound] (H-[dR]PKPQQ[dW]F[dW]LL-NH2)
[2]
  Minimal active dose, p115 phosphorylation: > 10000 nM

## CSCC[C@H](NC(=O)[C@H](CC(C)C)NC(=O)[C@H](Cc1c[nH]cn1)NC(=O)CNC(=O)[C@@H](NC(=O)[C@H](C)NC(=O)[C@H](Cc1c[nH]c2ccccc12)NC(=O)[C@H](CCC(N)=O)NC(=O)[C@H](Cc1ccc(N(CCCl)CCCl)cc1)NC(=O)OC(C)(C)C)C(C)C)C(N)=O [VI, Boc-pMel-Gln-Trp-Ala-Val-Gly-His-Leu-Met-NH2]
Bombesin receptors
  IC50: 48 ± 2 nM

## CSCC[C@H](NC(=O)[C@H](CC(C)C)NC(=O)[C@H](Cc1c[nH]cn1)NC(=O)CNC(=O)[C@@H](NC(=O)[C@H](C)NC(=O)[C@H](Cc1c[nH]c2ccccc12)NC(=O)[C@H](CCC(N)=O)NC(=O)[C@@H](N)Cc1ccc(N(CCCl)CCCl)cc1)C(C)C)C(N)=O [VII, H-pMel-Gln-Trp-Ala-Val-Gly-His-Leu-Met-NH2.2 HCl]
Bombesin receptors
  IC50: 60 ± 20 nM

## CSCC[C@H](NC(=O)[C@H](CC(C)C)NC(=O)CNC(=O)[C@@H](NC(=O)[C@H](C)NC(=O)[C@H](Cc1c[nH]c2ccccc12)NC(=O)[C@H](CCC(N)=O)NC(=O)[C@@H](NC(=O)CNC(=O)[C@H](CC(C)C)NC(=O)[C@H](Cc1cccc(N(CCCl)CCCl)c1)NC(=O)OC(C)(C)C)[C@@H](C)O)C(C)C)C(N)=O [XIV, Boc-mMel-Leu-Gly-Thr-Gln-Trp-Ala-Val-Gly-Leu-Met-NH2] (Boc-[X1]LGTQWAVGLM-NH2)
Bombesin receptors
  IC50: 445 ± 60 nM

## CSCC[C@H](NC(=O)[C@H](CC(C)C)NC(=O)[C@H](Cc1c[nH]cn1)NC(=O)CNC(=O)[C@@H](NC(=O)[C@H](C)NC(=O)[C@H](Cc1c[nH]c2ccccc12)NC(=O)[C@H](CCC(N)=O)NC(=O)[C@@H](N)Cc1cccc(N(CCCl)CCCl)c1)C(C)C)C(N)=O [XIX, H-mMel-Gln-Trp-Ala-Val-Gly-His-Leu-Met-NH2.2HCl]
Bombesin receptors
  IC50: 95 ± 8 nM

## CSCC[C@H](NC(=O)[C@H](CC(C)C)NC(=O)[C@H](Cc1c[nH]cn1)NC(=O)CNC(=O)[C@@H](NC(=O)[C@H](C)NC(=O)[C@H](Cc1c[nH]c2ccccc12)NC(=O)[C@H](CCC(N)=O)NC(=O)[C@H](Cc1cccc(N(CCCl)CCCl)c1)NC(=O)OC(C)(C)C)C(C)C)C(N)=O [XVIII, Boc-mMel-Gln-Trp-Ala-Val-Gly-His-Leu-Met-NH3.CF3 COOH]
Bombesin receptors
  IC50: 40 ± 12 nM

## CSCC[C@H](NC(=O)[C@H](CC(C)C)NC(=O)CNC(=O)[C@@H](NC(=O)[C@H](C)NC(=O)[C@H](Cc1c[nH]c2ccccc12)NC(=O)[C@H](CCC(N)=O)NC(=O)[C@H](Cc1cccc(N(CCCl)CCCl)c1)NC(=O)OC(C)(C)C)C(C)C)C(N)=O [XX, Boc-mMel-Gln-Trp-Ala-Val-Gly-Leu-Met-NH2] (Boc-[X1]QWAVGLM-NH2)
Bombesin receptors
  IC50: 60.1 ± 3.3 nM

## Boc-mMel-Gln-Trp-Ala-Val-Gly-His(Dnp)-Leu-Met-NH2 [XVI]
Swiss 3T3 fibroblasts [1]; 5 nM
  [H3]thymidine incorporation, fold increase over basal value: 1.2
Swiss 3T3 fibroblasts [1]; 50 nM
  [H3]thymidine incorporation, fold increase over basal value: 1.6
Swiss 3T3 fibroblasts [1]; 500 nM
  [H3]thymidine incorporation, fold increase over basal value: 3.1
Swiss 3T3 fibroblasts [1]; 5000 nM
  [H3]thymidine incorporation, fold increase over basal value: 3.9
Swiss 3T3 fibroblasts [1]
  Effect on thymidine incorporation (in words): did not increase incorporation of thymidine
Swiss 3T3 fibroblasts [3]
  Antagonism of BBS (in words): potent antagonists
Bombesin receptors
  ID50: 390 ± 160 nM
[2]
  Minimal active dose, p115 phosphorylation: 40 nM
Swiss 3T3 fibroblasts [4]; 500 nM
  % inhibition in the presence of 25 nM BBS (A): 17 ± 2%
  % inhibition in the presence of 25 nM BBS (B): 47 ± 10%
Swiss 3T3 fibroblasts [4]; 5000 nM
  % inhibition in the presence of 25 nM BBS (A): 41 ± 1%
  % inhibition in the presence of 25 nM BBS (B): 37 ± 7%
Swiss 3T3 fibroblasts [4]
  Antagonism of BBS (in words): potent antagonists

## Boc-pMel-Gln-Trp-Ala-Val-Gly-His(Dnp)-Leu-Met-NH2 [IV]
Swiss 3T3 fibroblasts [1]; 5 nM
  [H3]thymidine incorporation, fold increase over basal value: 1
Swiss 3T3 fibroblasts [1]; 50 nM
  [H3]thymidine incorporation, fold increase over basal value: 1
Swiss 3T3 fibroblasts [1]; 500 nM
  [H3]thymidine incorporation, fold increase over basal value: 1.7
Swiss 3T3 fibroblasts [1]; 5000 nM
  [H3]thymidine incorporation, fold increase over basal value: 2.3
Swiss 3T3 fibroblasts [1]
  Effect on thymidine incorporation (in words): did not increase incorporation of thymidine
Swiss 3T3 fibroblasts [3]
  Antagonism of BBS (in words): potent antagonists
Bombesin receptors
  ID50: 1,170 ± 400 nM
[2]
  Minimal active dose, p115 phosphorylation: 50 nM
Swiss 3T3 fibroblasts [4]; 500 nM
  % inhibition in the presence of 25 nM BBS (A): 59 ± 3%
  % inhibition in the presence of 25 nM BBS (B): 81%
Swiss 3T3 fibroblasts [4]; 5000 nM
  % inhibition in the presence of 25 nM BBS (A): 67 ± 3%
  % inhibition in the presence of 25 nM BBS (B): 73%
Swiss 3T3 fibroblasts [4]
  Antagonism of BBS (in words): potent antagonists

## H-mMel-Gln-Trp-Ala-Val-Gly-His-(Dnp)-Leu-Met-NH2.HCl [XVII]
Swiss 3T3 fibroblasts [1]; 5 nM
  [H3]thymidine incorporation, fold increase over basal value: 1
Swiss 3T3 fibroblasts [1]; 50 nM
  [H3]thymidine incorporation, fold increase over basal value: 2.9
Swiss 3T3 fibroblasts [1]; 500 nM
  [H3]thymidine incorporation, fold increase over basal value: 4.2
Swiss 3T3 fibroblasts [1]; 5000 nM
  [H3]thymidine incorporation, fold increase over basal value: 3.9
Swiss 3T3 fibroblasts [1]
  Effect on thymidine incorporation (in words): did not increase incorporation of thymidine
Swiss 3T3 fibroblasts [3]
  Antagonism of BBS (in words): potent antagonists
Bombesin receptors
  ID50: 148 ± 27 nM
[2]
  Minimal active dose, p115 phosphorylation: 4 nM
Swiss 3T3 fibroblasts [4]; 500 nM
  % inhibition in the presence of 25 nM BBS (A): 6 ± 3%
  % inhibition in the presence of 25 nM BBS (B): 58 ± 13%
Swiss 3T3 fibroblasts [4]; 5000 nM
  % inhibition in the presence of 25 nM BBS (A): 20 ± 7%
  % inhibition in the presence of 25 nM BBS (B): 62 ± 1%
Swiss 3T3 fibroblasts [4]
  Antagonism of BBS (in words): potent antagonists

## H-pMel-Gln-Trp-Ala-Val-Gly-His(Dnp)-Leu-Met-NH2.HCl
Swiss 3T3 fibroblasts [1]; 5 nM
  [H3]thymidine incorporation, fold increase over basal value: 1
Swiss 3T3 fibroblasts [1]; 50 nM
  [H3]thymidine incorporation, fold increase over basal value: 1
Swiss 3T3 fibroblasts [1]; 500 nM
  [H3]thymidine incorporation, fold increase over basal value: 1.4
Swiss 3T3 fibroblasts [1]; 5000 nM
  [H3]thymidine incorporation, fold increase over basal value: 1.8
Swiss 3T3 fibroblasts [1]
  Effect on thymidine incorporation (in words): did not increase incorporation of thymidine
Swiss 3T3 fibroblasts [3]
  Antagonism of BBS (in words): potent antagonists
Bombesin receptors
  ID50: 680 ± 150 nM
[2]
  Minimal active dose, p115 phosphorylation: 100 nM
Swiss 3T3 fibroblasts [4]; 500 nM
  % inhibition in the presence of 25 nM BBS (A): 26 ± 8%
  % inhibition in the presence of 25 nM BBS (B): 87 ± 9%
Swiss 3T3 fibroblasts [4]; 5000 nM
  % inhibition in the presence of 25 nM BBS (A): 44 ± 12%
  % inhibition in the presence of 25 nM BBS (B): 83 ± 6%
Swiss 3T3 fibroblasts [4]
  Antagonism of BBS (in words): potent antagonists
